For one test, the system named is HIV. The test is described as follows: Anti-HIV activity in MT4 cells (method of Averett, J. Virol. Methods 1989). The test is classed as cell-based. Particulars: Human immunodeficiency virus 1, read-out: Activity Range (IC50). Here is the method: The compounds of the present invention were tested for anti-HIV activity in MT4 cells according to the method described by Averett, D. R., J. Virol.
In the case of `CCCc1c([S+]([O-])C2CCCCC2)c2cc(Cl)ccc2[nH]c1=O` (centres unmarked) [Example 24, 6-Chloro-4-(cyclohexylsulfinyl)-3-propyl-2(1H)-quinolinone], the IC50 was in the range of 100 to 500 nM.
Still for that read-out and setting: with `CCCc1c(OC2CCCCC2)c2cc(Cl)ccc2[nH]c1=S` [Example 20, 6-Chloro-4-(cyclohexyloxy)-3-propyl-2(1H)-quinolinethione] the figure was 5 to 100 nM; with `CCCc1c(OC2CCCC2)c2cc(C)ccc2[nH]c1=O` [Example 10, 4-Cyclopentyloxy-6-methyl-3-propyl-2(1H)-quinolinone], 500 to 2000 nM.
Same read-out and setting: with `CCCc1c(OC#CC2CC2)c2cc(Cl)ccc2[nH]c1=O` [Example 35, 6-Chloro-4-[(2-cyclopropylethynyl)oxy]-3-propyl-2(1H)-quinolinone] the figure was 5 to 100 nM.
Same read-out and setting: with `CCCc1c(OCC2CCCCC2)c2cc(Cl)ccc2[nH]c1=O` [Example 5, 6-Chloro-4(cyclohexylmethoxy)-3-propyl-2(1H)-quinolinone] the figure was 500 to 2000 nM.
Consider `CCCc1c(OC2CCCCC2)c2cc(Cl)ccc2[nH]c1=O` [Example 1, 6-Chloro-4-(cyclohexyloxy)-3-propyl-2(1H)-quinolinone], for which the IC50 lay in the range of 5 to 100 nM.
The same measure, in the same setting: with `CCCc1c(OCC2CC2)c2cc(Cl)ccc2[nH]c1=O` [Example 3, 6-Chloro-4-(cyclopropylmethoxy)-3-propyl-2(1H)-quinolinone] the figure was 100 to 500 nM.
The same measure, in the same setting: with `CC(C)c1c(OC2CCCCC2)c2cc(Cl)ccc2[nH]c1=O` [Example 9, 6-Chloro-4-(cyclohexyloxy)-3-isopropyl-2(1H)-quinolinone] the figure was 5 to 100 nM.
For the compound `CCc1c(OC#CC2CC2)c2cc(F)ccc2[nH]c1=O` [Example 45, 4-[(2-Cyclopropylethynyl)oxy]-3-ethyl-6-fluoro-2(1H)-quinolinone], the IC50 is 5 to 100 nM.
As for `CC(C)c1c(OC#CC2CC2)c2cc(F)ccc2[nH]c1=O` [Example 36, 4-[(2-Cyclopropylethynyl)oxy]-6-fluoro-3-(isopropyl)-2(1H)-quinolinone], the half-maximal inhibitory concentration (IC50) was in the range of 5 to 100 nM.
With `CC(C)c1c(OC#CC2CC2)c2cc(Cl)ccc2[nH]c1=O` [Example 46, 6-Chloro-4-[(2-Cyclopropylethynyl)oxy]-3-isopropyl-2(1H)-quinolinone], the IC50 is 5 to 100 nM.
Still for that read-out and setting: with `CCCc1c(OC#CC2CC2)c2cc(F)ccc2[nH]c1=O` [Example 37, 4-[(2-Cyclopropylethynyl)oxy]-6-fluoro-3-propyl-2(1H)-quinolinone] the figure was 5 to 100 nM; with `CCCc1c(OCC2OCCO2)c2cc(Cl)ccc2[nH]c1=O` [Example 6, 6-Chloro-4-(1,3-dioxolan-2-ylmethoxy)-3-propyl-2(1H)-quinolinone], 500 to 2000 nM.

The test is the same for the next values; noted with them: read-out: Activity Range (IC50).
As for `CC(C)Cc1c(OC#CC2CC2)c2cc(F)ccc2[nH]c1=O` [Example 47, 4-[(2-Cyclopropylethynyl)oxy]-6-fluoro-3-isobutyl-2(1,H)-quinolinone], the IC50 fell in the range of 5 to 100 nM.

By IC50 is commonly meant the point on the concentration scale where inhibition reaches its midpoint.

Values taken from patent US20030069271A1, “Quinolone compounds for use in treating viral infections” (priority 1999, published 2003).
